Tests used:
[1] = test system: PGC-1α; test: Expression of gastrocnemius muscle mitochondrial function-related gene (quantitative PCR); format: in vivo; details: mouse gastrocnemius muscle after 13 weeks of rearing, 0.25% sphingomyelin test feed; control group 1.17 ± 0.10; p < 0.05
Description: (§1) After that, the mice were fed with a control feed (10% lipid, 20% casein, 55.5% potato starch, 8.1% cellulose, 0.2% methionine, 2.2% vitamin (product name: Vitamin mix AIN-76, Oriental Bioservice, Inc.), and 4% mineral (product name: Mineral mix AIN-76, Oriental Bioservice, Inc.)) or a test feed containing the sphingomyelin (10% lipid, 20% casein, […], 8.1% cellulose, 0.2% methionine, 2.2% vitamin, 4% mineral, and 0.25% sphingomyelin) each for nine weeks, and a respiratory gas analysis was carried out at the tenth week.
After 13 weeks of rearing, the gastrocnemius muscle of a mouse of each group was collected, and RNA samples were obtained using RNeasy Fibrous Tissue Mini Kit (Qiagen). Each RNA sample was quantified, and a reverse transcription reaction was carried out in a reaction solution (1×PCR buffer II (Applied Biosystems), 5 mM MgCl2, 1 mM dNTP mix, 2.5 μM Oligo d [T]18 (New England Biolabs) and 1 U/ml RNase inhibitor (TAKARA BIO INC.) for 125 ng of RNA per reaction, to thereby obtain cDNA. The reaction was carried out under conditions of 42° C. and 10 min, 52° C. and 30 min, and 99° C. and 5 min.
Quantitative PCR was carried out using the thus obtained cDNA as a template by ABI PRISM 7700 Sequence Detector (Applied Biosystems) The results were corrected based on the expression amount of 36B4 mRNA and represented as relative mRNA expression amounts. […]

[2] = test system: mice; test: Respiratory gas analysis (energy consumption and lipid combustion); format: in vivo, mouse; details: average in 24 hours after nine weeks of rearing, 0.25% sphingomyelin test feed
Description: After preliminary rearing for one week, nine-week old BALB/c mice (male: Oriental Bioservice, Inc.) were classified into two groups (eight mice in each group) such that each group had the same body weight.
as §1
The mice were transferred to a chamber for respiratory gas analysis and habituated to the environment for 48 hours, and oxygen consumption level and respiratory quotient of each mouse were measured over 24 hours using Arco-2000 system (ARCOSYSTEM Inc.). […] From the oxygen consumption level and respiratory quotient, the lipid combustion level was calculated by an equation of Peronnet (Peronnet F, and Massicotte D (1991) Can J Sport Sci 16:23-29.).

[3] = test system: isolated soleus muscle; test: Suppression of muscle strength deterioration after tail suspension treatment (isolated soleus muscle); format: in vivo, mouse; details: mice, 0.25% sphingomyelin diet for two weeks, then seven days of tail suspension; SPM group vs Cont group
Description: After preliminary rearing for one week, BALB/c male mice (nine-week old) were classified into three groups (a Normal group, a Cont group, and an SPM group) based on their weights (n=8 in each group). After grouping, the mice of the Normal group and the Cont group were fed with a control feed (10% lipid, 20% casein, 55.5% potato starch, 8.1% cellulose, 0.2% methionine, 2.2% vitamin, and 4% mineral), and the mice of the SPM group were fed with a test feed containing the sphingomyelin prepared in Production Example 1 (10% lipid, 20% casein, 55.25% potato starch, 8.1% cellulose, 0.2% methionine, 2.2% vitamin, 4% mineral, and 0.25% sphingomyelin) each for two weeks. The mice were fed with the test feed for two weeks, and the mice of the Cont group and the SPM group were subject to a tail suspension treatment to exclude a gravity load on their hindlimb muscles (such as soleus muscle). […] The mice of the Normal group were not subjected to the tail suspension treatment. After seven days of the tail suspension treatment, the mice were subjected to anatomy, and muscle strength of the isolated soleus muscle was measured. The muscle strength of the isolated muscle was measured in the same way as in Test Example 1.

[4] = test system: mice; test: Swimming endurance (limit swimming time in flowing water pool); format: in vivo, mouse; details: 0.25% sphingomyelin diet and exercise, five weeks after beginning of administration, flow rate 7 L/min
Description: (§2) After preliminary rearing for one week, nine-week old BALE/c male mice (Charles River Laboratories Japan Inc.) were classified into three groups (a Cont group, an Ex group, and an SPM group) (eight mice in each group) such that each group had the same body weight and swimming endurance (determined by measuring a limit swimming time by using a flowing water pool for mice (Kyodai Matsumoto type flowing water tank for measuring an amount of exercise: length×width×depth=90×45×45 cm, water depth: 38 cm, water temperature: 34° C. (Matsumoto, J Appl Physiol. 81: 1843-1849, 1996)) by the below-mentioned method).
After grouping, the mice of the Cont group and the Ex group were fed with a control feed (10% lipid, 20% casein, 55.5% potato starch, 8.1% cellulose, 0.2% methionine, 2.2% vitamin (product name: Vitamin mix AIN-76, Oriental Bioservice, Inc.), and 4% mineral (product name: Mineral mix AIN-76, Oriental Bioservice, Inc.)), and the mice of the SPM group were fed with a test feed containing the sphingomyelin prepared in Production Example 1 (10% lipid, 20% casein, 55.25% potato starch, 8.1% cellulose, 0.2% methionine, 2.2% vitamin, 4% mineral, and 0.25% sphingomyelin) each for 13 weeks.
During the feeding period, the limit swimming time was measured for the mice of the Ex group and the SPM group using the flowing water pool for mice once a week. […]

[5] = test system: isolated soleus muscle and extensor digitorum longus muscle; test: Muscle strength of isolated soleus and extensor digitorum longus muscle after 13 weeks of rearing with exercise; format: in vivo, mouse; details: mice, 0.25% sphingomyelin diet and exercise, electrical stimulation 40 Hz, 330 ms, 10V
Description: as §2, with “method). […] After 13 weeks of rearing, the mice were subjected to anatomy, muscle strength of isolated soleus muscle and extensor digitorum longus muscle was measured. Muscle strength of the isolated muscle was measured according to a method by Cannon et al. (Biomed Sci Instrum, 2005). […] Electrical stimulation of 40 Hz, 330 ms, and 10V was applied by using two platinum electrodes, and a signal obtained from the transducer was determined as muscle strength (g/mg muscle).” for “method).”

## sphingomyelin
[1]
  PGC-1α relative mRNA expression amount (corrected based on 36B4 mRNA): 1.50 ± 0.15
[2]; calculated by equation of Peronnet, control group 5.4 ± 0.7, p < 0.05
  Lipid combustion level: 7.5 ± 0.7 mg/kg/min
[2]; control group 55.0 ± 1.0, p < 0.05
  Oxygen consumption level: 58.2 ± 0.8 mL/min/kg
[3]
  muscle strength of the isolated soleus muscle: significantly higher value
[4]
  swimming endurance (limit swimming time): significant improvement in endurance
[5]
  muscle strength of the extensor digitorum longus muscle: significantly higher values
  muscle strength of the soleus muscle: significantly higher values

Source: patent US20120309716A1, “Motor Function Improver” (Kao Corporation, priority 2010, published 2012)
